The text below walks through data of patent publication US10874743B2, “IRAK degraders and uses thereof” (Kymera Therapeutics, Inc., priority 2017, dated 2020).

The assay deals with T1, IRAK4 (Homo sapiens, UniProt Q9NWZ3).
T1 sequence (Q9NWZ3 1-460): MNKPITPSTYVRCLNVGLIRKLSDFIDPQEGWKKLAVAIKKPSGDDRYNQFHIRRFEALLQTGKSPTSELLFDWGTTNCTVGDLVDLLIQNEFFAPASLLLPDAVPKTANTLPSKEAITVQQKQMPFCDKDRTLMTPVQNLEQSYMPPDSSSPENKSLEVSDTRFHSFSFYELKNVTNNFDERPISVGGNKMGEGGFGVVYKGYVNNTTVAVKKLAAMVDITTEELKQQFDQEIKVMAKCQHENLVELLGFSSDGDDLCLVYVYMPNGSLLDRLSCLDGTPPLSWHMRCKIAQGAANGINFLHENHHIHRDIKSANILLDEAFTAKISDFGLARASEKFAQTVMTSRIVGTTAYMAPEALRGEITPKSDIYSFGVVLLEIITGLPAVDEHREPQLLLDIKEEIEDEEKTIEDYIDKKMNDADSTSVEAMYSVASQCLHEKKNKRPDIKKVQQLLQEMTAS
Nature of the assay: PBMC degradation assay (western blot, % IRAK4 degraded after 4 hours). The conditions noted are these: human PBMCs. The assay is classed as cell-based. As for the experimental part:
Protocol summary of PBMC degradation studies from compound treatment through quantitation.
PBMC culture medium: Human peripheral blood mononuclear cells (PBMCs): RPMI+10% FBS (Heat-inactivated)+1% P/S.
Cells were cultured at a minimum of 2.5×10^6 c/mL. • PBMCs were incubated @ 37° C./5% CO2 and allowed to rest overnight. • Following overnight recovery, a cell count/viability assessment by trypan blue exclusion was performed. Cells densities were adjusted back to 2.5×10^6 c/mL (proceed with plating only if viability >80%). • In a 6 well plate, 2.0 mL of cells were added to each well for a minimum of 5×10^6 CT per treatment condition. Compounds dilutions were prepared from 20 mM stock and were added at a final 1000× dilution (0.1% DMSO concentration). • At the end of treatment, cells were harvested and spun @ 1800 rpm for 5 min. 1×PBS wash and spun again @ 1800 rpm for 5 min. Cell pellets were frozen and stored at −80° C. until further processing. • Lysates were generated by resuspending in lysis buffer. Protein quantification was performed with a BCA kit. • 20 μg of protein were loaded per lane and run on a 26-well 4-12% Bis-Tris SDS-page gel. • Transfers were performed on PVDF membranes using the BioRad Mixed MW turbo program for 7 min. • Membranes were blocked for one hour on a rocker at room temperature. • Primary antibodies were incubated overnight at 4° C. on a rocker. • Membranes were washed 3×TBST, 5 min each. • Secondaries were added and incubated for one hour on a rocker at room temperature. • Membranes were washed 3×TBST, 5 min each and rinsed well with deionized H2O. Membranes were scanned using the Licor Odessey CLx and bands were quantified using Image Studio Lite Version 5.2 software.
PBMC results at 4 hours. The letter codes indicate the percentage of IRAK4 degraded after 4 hours: A (>50% degradation), B (>20-50% degradation) and C (<20% degradation)
On to `CN(CCOCCOCCNc1cccc2c1C(=O)N(C1CCC(=O)NC1=O)C2=O)C(=O)c1ccc(-n2cc(NC(=O)c3coc(-c4ccnc(NCC(F)(F)F)c4)n3)c(C(N)=O)n2)cc1` (stereo not shown) [I-159, N-[3-carbamoyl-1-[4-[2-[2-[2-[[2-(2,6-dioxo-3-piperidyl)-1,3-dioxo-isoindolin-4-yl]amino]ethoxy]ethoxy]ethyl-methyl-carbamoyl]phenyl]pyrazol-4-yl]-2-[2-(2,2,2-trifluoroethylamino)-4-pyridyl]oxazole-4-carboxamide], for which the “PBMC % IRAK4 Degradation” value is reported as “A (>50% degradation)”.

`NC(=O)c1nn(-c2ccc(CNCCOCCOCCNc3cccc4c3C(=O)N(C3CCC(=O)NC3=O)C4=O)cc2)cc1NC(=O)c1coc(-c2ccnc(NCC(F)(F)F)c2)n1` (stereo not shown) [I-171, N-[3-carbamoyl-1-[4-[[2-[2-[2-[[2-(2,6-dioxo-3-piperidyl)-1,3-dioxo-isoindolin-4-yl]amino]ethoxy]ethoxy]ethylamino]methyl]phenyl]pyrazol-4-yl]-2-[2-(2,2,2-trifluoroethylamino)-4-pyridyl]oxazole-4-carboxamide]: the “PBMC % IRAK4 Degradation” value is given as “A (>50% degradation)”.

As for `NC(=O)c1nn(-c2ccc(C(=O)NCCC#CC#CCCNc3cccc4c3C(=O)N(C3CCC(=O)NC3=O)C4=O)cc2)cc1NC(=O)c1coc(-c2ccnc(NCC(F)(F)F)c2)n1` (stereo not shown) [I-179, N-[3-carbamoyl-1-[4-[8-[[2-(2,6-dioxo-3-piperidyl)-1,3-dioxo-isoindolin-4-yl]amino]octa-3,5-diynylcarbamoyl]phenyl]pyrazol-4-yl]-2-[2-(2,2,2-trifluoroethylamino)-4-pyridyl]oxazole-4-carboxamide], the “PBMC % IRAK4 Degradation” value is on record as “C (<20% degradation)”.

For `NC(=O)c1nn(-c2ccc(C(=O)NCc3cn(CCCNc4cccc5c4C(=O)N(C4CCC(=O)NC4=O)C5=O)nn3)cc2)cc1NC(=O)c1coc(-c2ccnc(NCC(F)(F)F)c2)n1` (stereo not shown) [I-180, N-[3-carbamoyl-1-[4-[[1-[3-[[2-(2,6-dioxo-3-piperidyl)-1,3-dioxo-isoindolin-4-yl]amino]propyl]triazol-4-yl]methylcarbamoyl]phenyl]pyrazol-4-yl]-2-[2-(2,2,2-trifluoroethylamino)-4-pyridyl]oxazole-4-carboxamide], the “PBMC % IRAK4 Degradation” value is recorded as “A (>50% degradation)”.

For the compound `NC(=O)c1nn(-c2ccc(C(=O)NCCc3cn(CCCNc4cccc5c4C(=O)N(C4CCC(=O)NC4=O)C5=O)nn3)cc2)cc1NC(=O)c1coc(-c2ccnc(NCC(F)(F)F)c2)n1` (stereo not shown) [I-181, N-[3-carbamoyl-1-[4-[2-[1-[3-[[2-(2,6-dioxo-3-piperidyl)-1,3-dioxo-isoindolin-4-yl]amino]propyl]triazol-4-yl]ethylcarbamoyl]phenyl]pyrazol-4-yl]-2-[2-(2,2,2-trifluoroethylamino)-4-pyridyl]oxazole-4-carboxamide], the “PBMC % IRAK4 Degradation” value is given as “B (>20-50% degradation)”.

Take `NC(=O)c1nn(-c2ccc(C(=O)NCCCn3cc(CNc4cccc5c4C(=O)N(C4CCC(=O)NC4=O)C5=O)nn3)cc2)cc1NC(=O)c1coc(-c2ccnc(NCC(F)(F)F)c2)n1` (stereo not shown) [I-183, N-[3-carbamoyl-1-[4-[3-[4-[[[2-(2,6-dioxo-3-piperidyl)-1,3-dioxo-isoindolin-4-yl]amino]methyl]triazol-1-yl]propylcarbamoyl]phenyl]pyrazol-4-yl]-2-[2-(2,2,2-trifluoroethylamino)-4-pyridyl]oxazole-4-carboxamide]: the “PBMC % IRAK4 Degradation” value is “B (>20-50% degradation)”.

Take `O=C1CCC(N2C(=O)c3cccc(NCCOCCOCCNCc4ccc(-n5cc(NC(=O)c6coc(-c7ccnc(NCC8CC8)c7)n6)c(C(F)(F)F)n5)cc4)c3C2=O)C(=O)N1` (stereo not shown) [I-185, 3-2-(2-((Cyclopropylmethyl)amino)pyridin-4-yl)-N-(1-(4-(((2-(2-(2-((2-(2,6-dioxopiperidin-3-yl)-1,3-dioxoisoindolin-4-yl)amino)ethoxy)ethoxy)ethyl)amino)methyl)phenyl)-3-(trifluoromethyl)-1H-pyrazol-4-yl)oxazole-4-carboxamide]: the “PBMC % IRAK4 Degradation” value is recorded as “A (>50% degradation)”.
